Assay results: patent publication US20130131146A1, “Compositions and Methods for Treating Pulmonary Conditions” (THE JOHNS HOPKINS UNIVERSITY, priority 2010, published 2013)
Entries after “also recorded” stand apart in the source; their conditions may differ. Like-named read-outs stand apart in the source and are kept apart here.

Key:
[1] = system: Pa-LPS-induced lung injury; type: in vivo, mice
[2] = system: chronic-CS induced lung inflammation and emphysema; assay: Chronic cigarette smoke (24 weeks) induced lung inflammation and emphysema in C57BL/6 mice; type: in vivo
Text: Scale: white/black bar-50 μm.

[3] = system: neutral SMase; conditions: at 5 mM GSH; cited from earlier work
[4] = system: NFκB promoter; assay: NFκB luciferase reporter assay in CFBE41o-wt-CFTR and CFBE41o- cells; type: cell-based, human; conditions: CFBE41o-wt-CFTR cells; 10 ng/ml TNFα, 50 μM FB1, 12 hours; p<0.05; only in the presence of cell surface CFTR
Text: The BALF and cell culture supernatants (n=3-5) were quantified in triplicate for mouse IL-6, IL-1β, or human IL-8 using ELISA kits (R&D Systems, or eBioscience, San Diego, Calif.) following the manufacturer's instructions. MPO levels in neutrophil culture supernatant or mouse BALF were similarly quantified using the MPO ELISA kit (Hycult Biotechnology, Uden, The Netherlands). For reporter assays, CFBE41o-WT-CFTR or CFBE41o-cells were transfected with NF-KB firefly luciferase promoter (pGL2) and renilla luciferase (pRLTK) control using Lipofectamine 2000 (Invitrogen). Renilla luciferase was used as an internal control for normalization of DNA and transfection efficiency of reporter constructs. […] Data were normalized with internal renilla luciferase control for each sample, and the changes in reporter activities with CFTR overexpression were calculated.

[5] = system: ZO-2; assay: Lipid-raft ZO-2 expression by Western blotting in CFBE41o- and CFBE41o-WT-CFTR cells; type: cell-based, human
[6] = system: membrane ceramide; assay: ZO-1/ceramide co-immunostaining and confocal imaging of CFBE41o-WT-CFTR cells; type: cell-based, human; conditions: 6 hrs
[7] = system: lipid-raft Fas and CFTR; assay: Immunoblotting of lung lipid-raft protein fraction from CD treated and/or sub-chronic CS exposed Cftr+/+ mice; type: in vivo; conditions: CD i.t. 2×50 μg
[8] = system: lipid-raft CFTR; assay: Intratracheal CD treatment of Cftr+/+ mice, lung immunofluorescence staining; type: in vivo, C57BL/6 mice; conditions: CD 75 μg/mouse i.t. for 3 days
Method: All animal experiments were carried out in accordance with the Johns Hopkins University (JHU) Animal Care and Use Committee (ACUC) approved protocols. Age-, weight-, and sex-matched (24 wk old), B6-12956-Cftr^−/− (Cftrtm^1Kthc-TgN(^FABPCFTR)) (30, 31) and Cftr^+/+ inbred mice strains (procured from Case Western Reserve University Animal Resource Center, Cleveland, Ohio; n=3-5 for all experiments). The changes in cytokine and inflammatory markers between Cftr^+/+and Cftr^−/− mice were verified by multiple (2, 3) experiments, and representative data are shown. All mice were housed in a controlled environment and pathogen-free conditions. […] Mice were sacrificed 24 h after drug treatment, and the bronchoalveolar lavage fluid (BALF) was collected for cytokine ELISAs. The lungs were fixed in 10% buffered formalin phosphate (Fisher Scientific, Pittsburgh, Pa.), paraffin embedded, and cut into longitudinal sections (5 μm thick) on glass slides for immunostaining. For depletion of membrane-CFTR in murine lungs, 72-h i.t. CD treatment was used, and lung tissues were collected as above. The mice (three to four mice per group, 8 to 10 wk old) were exposed to cigarette smoke (CS) using the TE-2 cigarette smoking machine (Teague Enterprises, Davis, Calif.). […] An average total particulate matter of 150 mg/m^3 was recorded in real time during the smoking protocols. […] The human lung tissue samples from Gold stage I (mild, forced expiratory volume [FEV1]% predicted>80%), Gold stage 11 (moderate, FEV1% predicted=˜50-80%), and Gold stage III-IV (severe/very severe, FEV1% predicted <50%) nontumor COPD (with FEV1/forced vital capacity [FVC] ratio of <70%) and Gold stage 0 (at risk) control subjects (procured from Lung Tissue Research Consortium [Bethesda, Md.], National Heart, Lung and Blood Institute, National Institutes of Health) were used for quantification and localization of indicated proteins by immunostaining All the subjects were stable, and Gold I-IV subjects had emphysema. […]

[9] = system: NFκB; assay: NFκB immunostaining of CFBE41o-WT-CFTR cells after lipid-raft CFTR depletion; type: cell-based, human; conditions: 5 mM CD, 6 hrs, ± 10 ng/ml Pa-LPS
[10] = system: IL-8; assay: IL-8 secretion ELISA in CFBE41o-WT-CFTR cells; type: cell-based, human; conditions: 5 mM CD, 24 hours; p<0.001
[11] = Cftr+/+ mice, Pa-LPS i.t. 12 h, then drug i.t. 24 h
[12] = Cftr-/- mice, Pa-LPS i.t. 12 h, then drug i.t. 24 h

CN(C)CCC=C1c2ccccc2CCc2ccccc21 [AMT, Amitriptyline]
protection against Pa-LPS-induced lung injury ([1]; Cftr+/+ mice, FIG. 4B legend): relatively less protective
Pa-LPS-induced IL-1b secretion (BALF) [1, 11]: unable to rescue
Pa-LPS-induced IL-6 (BALF) [1, 11]: unable to rescue
inflammatory cytokines (BALF) ([1]; Cftr-/- mice, FIG. 4B legend): effectively controls
Pa-LPS-induced IL-1b levels (BALF) [1, 12]: significant decrease
Pa-LPS-induced IL-6 (BALF) [1, 12]: significant decrease

CCCCCCCCCC(=O)N[C@H](CN1CCOCC1)[C@H](O)c1ccccc1 [D-PDMP]
CS induced inflammation and emphysema (H&E) ([2]; chronic-CS 24 weeks, 50 μg/mouse): significant decrease
chronic-CS induced LacCer-accumulation (lung immunostaining) ([2]; chronic-CS 24 weeks, 50 μg/mouse, p<0.05): significantly downregulated
alveolar space enlargement (alveolar diameter, morphometric analysis) ([2]; chronic-CS 24 weeks, p=0.0016): significantly controlled
BALF IL-6 levels ([2]; chronic-CS exposed mice, n=3, p=0.009): rescued to basal levels
chronic-CS induced macrophage (F4/80-positive cells) infiltration in BALF ([2]; flow cytometry, p<0.01): significantly controls

N[C@@H](CCC(=O)N[C@@H](CS)C(=O)NCC(=O)O)C(=O)O [Glutathione]
inhibition of neutral SMase [3]: greater than 95%

Fumonisin B1 [FB1]
TNFα mediated NFκB promoter activity [4]: inhibits
lipid-raft ZO-2 expression ([5]; CFBE41o- cells (no functional CFTR), Pa-LPS 10 ng/ml or FB1 50 μM, 24 h): neither Pa-LPS nor FB1 is able to modulate
lipid-raft ZO-2 expression ([5]; in the presence of WT-CFTR (CFBE41o-WT-CFTR cells)): downregulated
Pa-LPS-induced IL-10 (BALF) ([1]; Cftr+/+ mice, FIG. 4A): significantly decreases
Pa-LPS-induced IL-1b secretion (BALF) [1, 11]: very significant decrease
Pa-LPS-induced IL-6 (BALF) [1, 11]: significantly decreases
reduction in the Pa-LPS-induced IL-6 levels (BALF) ([1]; Cftr+/+ mice, Pa-LPS i.t. 12 h, then drug i.t. 24 h, p<0.05): 2 fold
Pa-LPS-induced IL-1b levels (BALF) [1, 12]: unaltered
Pa-LPS-induced IL-6 (BALF) [1, 12]: decreased; also recorded: modest effect

TNFα
CD induced membrane ceramide accumulation ([6]; TNFα 10 ng/ml with CD 5 mM): depletes

methyl-β-cyclodextrin [CD]
lipid-raft CFTR levels [7]: decrease
lipid-raft Fas expression [7]: increases
NFκB activity (lung immunofluorescence) [8]: induces
expression of lipid-raft marker (ZO-2) [8]: significant increase
neutrophil chemotaxis (NIMPR14) [8]: induces
CFTR control of NFκB signaling [9]: abrogates its control of NFκB signaling
ceramide accumulation on the cell surface and lipid rafts ([6]; CD 5 mM): increases
IL-8 chemokine levels [10]: significantly induces
